The source of these data is paper PMC3396595, “Identification of a Novel Calcium Binding Motif Based on the Detection of Sequence Insertions in the Animal Peroxidase Domain of Bacterial Proteins” (PLoS ONE, 2012).

The target in this test is PepA-Nter (N-terminal ANP-like domain of PepA, PP_2561) (Pseudomonas putida, UniProt Q88JT6). The test is described as follows: peroxidase assay, quinoneimine formation at […] nm. The test is classed as biochemical. To be noted: heme-reconstituted; electron donor with phenol; H2O2 0.25-45 mM varied; potassium phosphate pH 7.0, 25 °C.
Chain of PepA-Nter (N-terminal ANP-like domain of PepA, PP_2561) (Q88JT6 1-875 limits assumed): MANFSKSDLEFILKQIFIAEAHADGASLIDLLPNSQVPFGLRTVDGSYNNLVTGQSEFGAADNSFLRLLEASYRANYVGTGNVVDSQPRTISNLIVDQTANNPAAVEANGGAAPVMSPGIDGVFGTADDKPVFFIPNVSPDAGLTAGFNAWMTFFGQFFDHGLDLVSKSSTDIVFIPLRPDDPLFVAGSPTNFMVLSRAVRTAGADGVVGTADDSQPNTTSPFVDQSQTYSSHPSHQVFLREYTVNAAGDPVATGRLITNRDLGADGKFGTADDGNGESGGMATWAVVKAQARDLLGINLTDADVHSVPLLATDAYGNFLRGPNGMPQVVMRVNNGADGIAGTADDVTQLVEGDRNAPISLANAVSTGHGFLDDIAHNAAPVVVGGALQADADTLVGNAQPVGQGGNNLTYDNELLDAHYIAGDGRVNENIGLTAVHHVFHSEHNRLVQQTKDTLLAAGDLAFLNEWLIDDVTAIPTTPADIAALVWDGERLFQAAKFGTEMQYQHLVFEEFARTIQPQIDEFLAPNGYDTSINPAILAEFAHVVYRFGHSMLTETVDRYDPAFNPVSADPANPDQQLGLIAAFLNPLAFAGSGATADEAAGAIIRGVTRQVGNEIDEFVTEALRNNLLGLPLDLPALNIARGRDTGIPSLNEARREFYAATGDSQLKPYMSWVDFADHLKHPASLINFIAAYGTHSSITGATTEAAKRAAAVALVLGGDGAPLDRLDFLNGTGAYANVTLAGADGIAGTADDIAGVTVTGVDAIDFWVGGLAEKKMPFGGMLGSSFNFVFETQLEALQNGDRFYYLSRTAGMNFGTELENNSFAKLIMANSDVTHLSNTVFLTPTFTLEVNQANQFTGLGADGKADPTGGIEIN

`Cc1c(N)c(=O)n(-c2ccccc2)n1C` [4-aminoantipyrine]: the “peroxidase assay, quinoneimine formation at 510 nm” value was “oxidation of 4-aminoantipyrine (same electron donor than the one used in this study)”.
